This passage reports drug sensitivity score results from the supplement of paper PMC7108870.

The subject of test [1] is HEK293sieSTAT3(Y640F). The test is described as follows: drug sensitivity score (DSS), cytotoxicity CellTox Green (DSS (dimensionless)); higher = more cytotoxic; extreme values may be limits of the assay. The conditions noted are these: 72 h; STAT3 variant: Y640F (constitutively active). The method in brief:
(§1)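 Compounds were acoustically pre-plated in 384-well plates at 5 concentrations spaced by 10-fold dilutions, and HEK293 cells overexpressing wild-type or mutant STAT3 and carrying a STAT3-dependent luciferase reporter were added at 100,000 cells/ml in 20 μl. After 72 hours at 37°C and 5% CO2, the plates were read on a PHERAstar FS for CellTox Green fluorescence (485/520 nm) and then CellTiter-Glo luminescence. A drug sensitivity score derived from dose-response curve area was calculated in Breeze from values normalised to negative and positive control wells.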

For test [2], the system named is HEK293sieSTAT3(wt). The description is as above. The conditions noted are these: 72 h; STAT3 variant: wild type. An outline of the steps: as §1
Test [3] concerns HEK293sieSTAT3(Y640F). Nature of the test: drug sensitivity score (DSS), viability CellTiter-Glo (DSS (dimensionless)); higher = more growth inhibition; extreme values may be limits of the assay. The conditions noted are these: 72 h; STAT3 variant: Y640F (constitutively active). An outline of the steps: as §1
In general terms: Cellular ATP, detected with luciferase, serves as a proxy for viable cell number.

Test [4] concerns HEK293sieSTAT3(wt). Described as above. The conditions noted are these: 72 h; STAT3 variant: wild type. An outline of the steps: as §1

For the compound `CC(=O)[C@]1(O)Cc2c(O)c3c(c(O)c2[C@@H](O[C@H]2C[C@H](N)[C@H](O)[C@H](C)O2)C1)C(=O)c1ccccc1C3=O` [Idarubicin] (top concentration tested 1000 nM), the drug sensitivity score is 7.05 with HEK293sieSTAT3(Y640F) [1], 10.7 with HEK293sieSTAT3(wt) [2], 27.1 in the test with HEK293sieSTAT3(Y640F) [3] and 26.9 with HEK293sieSTAT3(wt) [4].

As for `CS(=O)(=O)N1CCN(Cc2cc3nc(-c4cccc5[nH]ncc45)nc(N4CCOCC4)c3s2)CC1` [Pictilisib] (top concentration tested 10000 nM), the drug sensitivity score in the test with HEK293sieSTAT3(Y640F) [1] was found to be 1.36; in the test on HEK293sieSTAT3(wt) [2], 7.57; in the test on HEK293sieSTAT3(Y640F) [3], 12.7; in the test on HEK293sieSTAT3(wt) [4], 15.7.

Regarding `Cn1c(Nc2ccc(C(F)(F)F)cc2)nc2cc(Oc3ccnc(-c4ncc(C(F)(F)F)[nH]4)c3)ccc21` [RAF265] (top concentration tested 1000 nM), the drug sensitivity score worked out at 0 in the test with HEK293sieSTAT3(Y640F) [1], 0.14 in the test with HEK293sieSTAT3(wt) [2], 0 in the test with HEK293sieSTAT3(Y640F) [3] and 0.25 in the test on HEK293sieSTAT3(wt) [4].

Regarding `O=c1[nH]cc(F)c(=O)[nH]1` [Fluorouracil] (top concentration tested 10000 nM), the drug sensitivity score with HEK293sieSTAT3(Y640F) [1] came to 0; in the test with HEK293sieSTAT3(wt) [2], 0; in the test with HEK293sieSTAT3(Y640F) [3] it was 6.62; with HEK293sieSTAT3(wt) [4], 6.27.

Turning to `CCNC(=O)CCC/C=C\C[C@@H]1[C@@H](/C=C/[C@@H](O)CCc2ccccc2)[C@H](O)C[C@@H]1O` [Bimatoprost] (top concentration tested 5500 nM), the drug sensitivity score in the test with HEK293sieSTAT3(Y640F) [1], in the test on HEK293sieSTAT3(wt) [2], in the test on HEK293sieSTAT3(Y640F) [3] and with HEK293sieSTAT3(wt) [4] was 0 throughout.

For `Nc1ccccc1NC(=O)c1ccc(CNC(=O)OCc2cccnc2)cc1` [Entinostat] (top concentration tested 10000 nM), the drug sensitivity score came to 0.1 in the test on HEK293sieSTAT3(Y640F) [1], 1.29 with HEK293sieSTAT3(wt) [2], 8.12 with HEK293sieSTAT3(Y640F) [3] and 8.98 in the test with HEK293sieSTAT3(wt) [4].

Consider `C=CC(=O)Nc1cccc(Nc2nc(Nc3ccc(OCCOC)cc3)ncc2F)c1` [Spebrutinib] (top concentration tested 1000 nM), for which the drug sensitivity score came out at 0 in the test on HEK293sieSTAT3(Y640F) [1], 0 in the test on HEK293sieSTAT3(wt) [2], 2.4 with HEK293sieSTAT3(Y640F) [3] and 0 with HEK293sieSTAT3(wt) [4].

As to `Cc1cc(Nc2nc(N[C@@H](C)c3ncc(F)cn3)ncc2Cl)[nH]n1` [AZD1480] (top concentration tested 1000 nM), the drug sensitivity score with HEK293sieSTAT3(Y640F) [1] was 0.04; in the test on HEK293sieSTAT3(wt) [2] it was 0.43; in the test with HEK293sieSTAT3(Y640F) [3], 0; in the test on HEK293sieSTAT3(wt) [4] it was 0.06.

With `CCS(=O)(=O)c1cccc(-c2cc(C(=O)NC3CCN(C)CC3)c(C)c3[nH]c4ncc(C)cc4c23)c1` [TAK-901] (top concentration tested 1000 nM), the drug sensitivity score came out at 0 in the test on HEK293sieSTAT3(Y640F) [1], 2.83 in the test with HEK293sieSTAT3(wt) [2], 4.54 in the test with HEK293sieSTAT3(Y640F) [3] and 4.52 in the test with HEK293sieSTAT3(wt) [4].

Turning to `Cn1cncc1[C@@](N)(c1ccc(Cl)cc1)c1ccc2c(c1)c(-c1cccc(Cl)c1)cc(=O)n2C` [Tipifarnib] (top concentration tested 10000 nM), the drug sensitivity score is 1.51 in the test on HEK293sieSTAT3(Y640F) [1], 6.86 in the test with HEK293sieSTAT3(wt) [2], 12.3 with HEK293sieSTAT3(Y640F) [3] and 14.8 in the test on HEK293sieSTAT3(wt) [4].

Take `CN(C)C(=O)c1ccc(S(=O)(=O)c2ccc(NC(=O)[C@@](C)(O)C(F)(F)F)c(Cl)c2)cc1` [AZD7545] (top concentration tested 10000 nM): the drug sensitivity score in the test with HEK293sieSTAT3(Y640F) [1] turned out to be 0; in the test with HEK293sieSTAT3(wt) [2] it was 0; with HEK293sieSTAT3(Y640F) [3] it was 0.82; in the test on HEK293sieSTAT3(wt) [4] it was 0.28.

On to `CC(=O)O[C@H]1C(=O)[C@@]2(C)[C@H]([C@H](OC(=O)c3ccccc3)[C@]3(O)C[C@H](OC(=O)[C@H](O)[C@@H](NC(=O)c4ccccc4)c4ccccc4)C(C)=C1C3(C)C)[C@]1(OC(C)=O)CO[C@@H]1C[C@@H]2O` [Paclitaxel] (top concentration tested 1000 nM), for which the drug sensitivity score turned out to be 0.91 with HEK293sieSTAT3(Y640F) [1], 16.8 with HEK293sieSTAT3(wt) [2], 16.4 in the test with HEK293sieSTAT3(Y640F) [3] and 23.2 in the test with HEK293sieSTAT3(wt) [4].

For `COc1cc(N2CCC(N3CCN(C)CC3)CC2)ccc1Nc1ncc(Cl)c(Nc2ccccc2P(C)(C)=O)n1` [Brigatinib] (top concentration tested 2500 nM), the drug sensitivity score in the test with HEK293sieSTAT3(Y640F) [1] is 0.69; with HEK293sieSTAT3(wt) [2], 1.71; in the test on HEK293sieSTAT3(Y640F) [3], 7.58; in the test with HEK293sieSTAT3(wt) [4], 8.02.

Take `Cc1c2oc3c(C)ccc(C(=O)N[C@@H]4C(=O)N[C@H](C(C)C)C(=O)N5CCC[C@H]5C(=O)N(C)CC(=O)N(C)[C@@H](C(C)C)C(=O)O[C@@H]4C)c3nc-2c(C(=O)N[C@@H]2C(=O)N[C@H](C(C)C)C(=O)N3CCC[C@H]3C(=O)N(C)CC(=O)N(C)[C@@H](C(C)C)C(=O)O[C@@H]2C)c(N)c1=O` [Dactinomycin] (top concentration tested 1000 nM): the drug sensitivity score is 0 with HEK293sieSTAT3(Y640F) [1], 0 with HEK293sieSTAT3(wt) [2], 32.5 with HEK293sieSTAT3(Y640F) [3] and 35.4 with HEK293sieSTAT3(wt) [4].

Regarding `CCCC(CCC)C(=O)O` [Valproic acid] (top concentration tested 1000000 nM), the drug sensitivity score in the test on HEK293sieSTAT3(Y640F) [1] was found to be 0; in the test on HEK293sieSTAT3(wt) [2], 0; in the test with HEK293sieSTAT3(Y640F) [3], 3.24; in the test with HEK293sieSTAT3(wt) [4] it was 3.15.

On to `COC(=O)N[C@@H](C)CNc1nccc(-c2cn(C(C)C)nc2-c2cc(Cl)cc(NS(C)(=O)=O)c2F)n1` [Encorafenib] (top concentration tested 1000 nM), for which the drug sensitivity score in the test with HEK293sieSTAT3(Y640F) [1] came to 0; in the test with HEK293sieSTAT3(wt) [2], 0; in the test with HEK293sieSTAT3(Y640F) [3], 0.92; in the test with HEK293sieSTAT3(wt) [4] it was 3.05.

Consider `CCCCCCCCCCCCCCCCCCOP(=O)([O-])OC1CC[N+](C)(C)CC1` [Perifosine] (top concentration tested 2500 nM), for which the drug sensitivity score in the test with HEK293sieSTAT3(Y640F) [1] came out at 0; with HEK293sieSTAT3(wt) [2] it was 0.08; in the test on HEK293sieSTAT3(Y640F) [3] it was 5.21; with HEK293sieSTAT3(wt) [4] it was 2.19.
